# Results as given in paper PMC12892976, “Alkylation-based optimization of antifungal FPPS inhibitors yields a potent, broad-spectrum lipophilic zoledronate derivative” (mBio, 2025).
# Like-named read-outs stand apart in the source and are kept apart here.
# What was measured:
# [1] = system: Candida albicans; experiment: checkerboard drug interaction (FICI, MICc);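 on all read-outs here: antifungal plus FPPS inhibitor combinations on Candida albicans tested by a simplified diagonal checkerboard screen, with FICI calculated under the Loewe additivity model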; assay type: cell-based; details: C. albicans; for INH FD (MIC-MICc fold decrease): fold decrease of inhibitor MIC
# Description: (§1) Drug interactions between antifungals and FPPS inhibitors were investigated using a simplified checkerboard diagonal screening method ([45]). […] FICIs were determined according to the Loewe additivity model ([17]).
# [2] = system: Aspergillus flavus; experiment: checkerboard drug interaction (FICI, MICc);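 further: simplified diagonal checkerboard screen pairing azole antifungals with FPPS inhibitors, FICI calculated under the Loewe additivity model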; assay type: cell-based; parameters: INH MICc (KET:INH) / INH MICc (FLC:INH): unit not given beside the values; details: A. flavus
# [3] = system: Aspergillus fumigatus; experiment: checkerboard drug interaction (FICI, MICc); assay type: cell-based;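 further: simplified diagonal checkerboard screen pairing antifungals with FPPS inhibitors against Aspergillus fumigatus, with FICI calculated under the Loewe additivity model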
# Description: as §1
# [4] = system: Trichophyton rubrum; experiment: checkerboard drug interaction (FICI, MICc);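 further: simplified diagonal checkerboard screen pairing azole antifungals with FPPS inhibitors, FICI calculated under the Loewe additivity model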; assay type: cell-based; details: T. rubrum
# Description: as §1
# [5] = system: HEK-293T cells; experiment: MTT reduction cytotoxicity assay; assay type: cell-based; details: Homo sapiens, HEK-293T, 72 h, MTT, 72 h
# [6] = system: eight fungal species; experiment: MIC/MFC summary across the eight fungal species of Table 1; assay type: cell-based
# Description: The antifungal activity of these compounds was evaluated according to CLSI guidelines ([16]).
# [7] = system: eight fungal species; experiment: checkerboard interaction with azoles, summary across the eight species; assay type: cell-based; details: geometric mean MIC in combination with azoles
# Description: Synergy between lipophilic FPPS inhibitors and azole antifungals was investigated by determining the fractional inhibitory concentration index (FICI) (Fig. 2; Table S1 Fig. S1) ([17]). […]. Derivatives PLA9 and 11, and PDA9, 11, and 12 antagonized azoles in C. albicans, C. neoformans, and C. deuterogattii, yet were largely synergistic in C. glabrata and S. cerevisiae. […].
# [8] = system: Cryptococcus deuterogattii; experiment: MIC/MFC broth microdilution (CLSI); details: Cryptococcus deuterogattii;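 further: broth microdilution per CLSI M27-Ed4. MFC is the lowest concentration yielding no colonies when MIC broths are subcultured onto SDA plates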
# Description: (§2) Antifungal susceptibility was determined by broth microdilution according to the CLSI guidelines described in M27-Ed4 ([16]). […] MFC was determined by back-plating drug-treated cultures from MIC broths onto SDA plates. The MFC was defined as the lowest concentration from which no colonies could be cultured.
# [9] = system: Cryptococcus neoformans; experiment: MIC/MFC broth microdilution (CLSI); details: Cryptococcus neoformans;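 further: susceptibility testing followed the CLSI M27-Ed4 broth microdilution document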
# Description: as §2
# [10] = system: Candida glabrata; experiment: MIC/MFC broth microdilution (CLSI); details: Nakaseomyces glabratus, CBS138;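 further: broth microdilution following CLSI M27-Ed4, MFC taken as the lowest drug level yielding no growth once MIC wells were subcultured on SDA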
# Description: as §2
# [11] = system: Aspergillus flavus; experiment: MIC/MFC broth microdilution (CLSI); details: ATCC204304
# Description: as §2
# [12] = system: Aspergillus fumigatus; experiment: MIC/MFC broth microdilution (CLSI); details: ATCC204305
# Description: as §2
# [13] = system: Trichophyton rubrum; experiment: MIC/MFC broth microdilution (CLSI); details: Trichophyton rubrum
# Description: as §2
# [14] = Fractional Inhibitory Concentration Index, fluconazole + inhibitor
# [15] = Fractional Inhibitory Concentration Index, itraconazole + inhibitor
# [16] = Fractional Inhibitory Concentration Index, ketoconazole + inhibitor
# [17] = MIC of the inhibitor in combination with fluconazole
# [18] = MIC of the inhibitor in combination with itraconazole
# [19] = MIC of the inhibitor in combination with ketoconazole
# [20] = MIC-MICc fold decrease of fluconazole, negative = increase
# [21] = MIC-MICc fold decrease of itraconazole, negative = increase
# [22] = MIC-MICc fold decrease of ketoconazole, negative = increase
# [23] = MIC-MICc fold decrease of the inhibitor, with fluconazole
# [24] = MIC-MICc fold decrease of the inhibitor, with itraconazole
# [25] = MIC-MICc fold decrease of the inhibitor, with ketoconazole
compound,measurement,setting,value
CCCCCCCCCN1CCC[C@H]1C(=O)N[C@H](CC(=O)OC)C(=O)OC [dmPDA9],INH FD (MIC-MICc fold decrease),[1]; ITR:INH combination,2
same,FICI,[1]; KET:INH combination,≥4
same,INH MICc,"[1]; KET:INH combination, MIC of the inhibitor in combination with KET",64
same,KET FD (MIC-MICc fold decrease),"[1]; KET:INH combination, fold decrease of KET MIC",< -4
same,INH FD (MIC-MICc fold decrease),[1]; KET:INH combination,2
same,FICI (FLC:INH),[2]; [14],2
same,FICI (ITR:INH),[2]; [15],2
same,FICI (KET:INH),[2]; [16],1
same,INH MICc (FLC:INH),[2]; [17],256
same,INH MICc (ITR:INH),[2]; [18],256
same,INH MICc (KET:INH),[2]; [19],128
same,FLC FD (FLC:INH),[2]; [20],1
same,ITR FD (ITR:INH),[2]; [21],1
same,KET FD (KET:INH),[2]; [22],2
same,INH FD (FLC:INH),[2]; [23],1
same,INH FD (ITR:INH),[2]; [24],1
same,INH FD (KET:INH),[2]; [25],2
same,FICI (FLC:INH),[3]; [14],1.5
same,FICI (ITR:INH),[3]; [15],0.52
same,FICI (KET:INH),[3]; [16],2
same,INH MICc (FLC:INH),[3]; [17],128
same,INH MICc (ITR:INH),[3]; [18],2
same,INH MICc (KET:INH),[3]; [19],128
same,FLC FD (FLC:INH),[3]; [20],2
same,ITR FD (ITR:INH),[3]; [21],2
same,KET FD (KET:INH),[3]; [22],1
same,INH FD (FLC:INH),[3]; [23],1
same,INH FD (ITR:INH),[3]; [24],64
same,INH FD (KET:INH),[3]; [25],1
same,FICI (FLC:INH),[4]; [14],1.25
same,FICI (ITR:INH),[4]; [15],1.13
same,FICI (KET:INH),[4]; [16],1.25
same,INH MICc (FLC:INH),[4]; [17],32
same,INH MICc (ITR:INH),[4]; [18],32
same,INH MICc (KET:INH),[4]; [19],32
same,FLC FD (FLC:INH),[4]; [20],4
same,ITR FD (ITR:INH),[4]; [21],8
same,KET FD (KET:INH),[4]; [22],4
same,INH FD (FLC:INH),[4]; [23],1
same,INH FD (ITR:INH),[4]; [24],1
same,INH FD (KET:INH),[4]; [25],1
same,IC50,"[5]; HEK-293T cells, read-out: IC50",10.4 µg/mL
same,IC50,[5]; read-out: HEK IC50,10.4 µg/mL
same,MFC,"[6]; across eight species, read-out: Geometric mean MFC",181 µg/mL
same,MIC,"[6]; geometric mean across eight species, read-out: GM fungal MIC",83 µg/mL
same,MIC,[6]; read-out: Geometric mean MIC,83 µg/mL
same,GM fungal MICc,[7],55.4
same,MFC,[8],64 µg/mL
same,MIC,[8],64 µg/mL
same,MFC,[9],128 µg/mL
same,MIC,[9],32 µg/mL
same,MFC,[10],> 128 µg/mL
same,MIC,[10],128 µg/mL
same,MFC,[11],> 128 µg/mL
same,MIC,[11],> 128 µg/mL
same,MFC,[12],> 128 µg/mL
same,MIC,[12],128 µg/mL
same,MFC,[13],> 128 µg/mL
same,MIC,[13],32 µg/mL
